Measured values published in the NIST ThermoML archive (doi:10.1021/je300902c).
± gives the expanded uncertainty stated by the source.

Experiments:
[1] = Molar enthalpy of transition or fusion; settings: DSC
[2] = molar enthalpy of vaporization or sublimation; settings: 298 K; Liquid; DSC

Triple point temperature (Crystal 2, DTA): 340.9 ± 0.5 K
Normal melting temperature (Crystal, DSC/DTA): 79.2 ± 0.4 °C
Molar enthalpy of transition or fusion ([1]; Crystal 2): 0.853 ± 0.148 kcal/mol
Molar enthalpy of transition or fusion ([1]; Crystal): 15.8 ± 0.335 kcal/mol
molar enthalpy [2]: 37 ± 3.59 kcal/mol
SMILES: CCCCCCCCCCCCCCCCCCCCCC(=O)O [docosanoic acid]
